In publication PMC9228592, “Dichloroacetyl Amides of 3,5-Bis(benzylidene)-4-piperidones Displaying Greater Toxicity to Neoplasms than to Non-Malignant Cells” (Medicines, 2022):

What was measured:
Format in all cases: cell-based, human
[1] = system: Ca9-22, HSC-2, HSC-3, and HSC-4 cells; assay: Average cytotoxicity, selectivity and PSE over the four carcinoma lines; settings: for Average SI: average of SI over Ca9-22, HSC-2, HSC-3, HSC-4
Source text: (§1) The target cells used in our study were human oral squamous cell carcinoma cell lines Ca9-22 (purchased from RIKEN Cell Bank, Tukuba, RCB-1976), HSC-2 (RCB1945), HSC-3 (RCB1975), HSC-4 (RCB1902), and three human normal oral cells, gingival fibroblast (HGF), periodontal ligament fibroblast (HPLF), and pulp cells (HPC) [established from the first premolar extracted tooth in the lower jaw (because of dysfunctional position or orthodontic treatment) and periodontal tissues of a child, according to the guideline of the Institutional Board of Meikai University Ethics Committee (No. A0808)], after obtaining informed consent from the patients. These cells were incubated for 48 h with the indicated concentrations of test samples or reference compounds sodium dichloroacetate (purchased from Sigma-Aldrich Chemical Company, Saint Louis, MO, USA), 5-fluorouracil (5-FU) from Kyowa (Tokyo, Japan), and doxorubicin (DXR) (St. Louis, MO, USA) and vehicle (DMSO) (0.008, 0.016, 0.031, 0.063, 0.125, 0.25, 0.5, and 1%) in Dulbecco’s Modified Eagle Medium (DMEM) media, which was supplemented with 10% heat-inactivated fetal bovine serum. Cell viability was determined by the MTT method. Cytotoxicity caused by the vehicle (DMSO) was subtracted.
(§2) SI was calculated by dividing the average CC50 value (concentration of the compound to kill 50% of the cells) of the compound towards HGF, HPLF, and HPC cells by the CC50 value of the compound against a specific neoplastic cell line.
PSE reflects both the potencies and differences in cytotoxicity to neoplasms and non-malignant cells. This value was the product of the reciprocal of the average CC50 value of the compounds towards Ca9-22, HSC-2, HSC-3, and HSC-4 cells and the average SI value × 100.

[2] = system: gingival fibroblast (HGF); assay: Cytotoxicity (MTT, 48 h) against HGF non-malignant cells; settings: mean ± S.D. of triplicate
Source text: as §1

[3] = system: Ca9-22 squamous cell carcinoma cells; assay: Cytotoxicity (MTT, 48 h) against Ca9-22 cells; settings: for CC50: 48 h, MTT, mean ± S.D. of triplicate; for SI (Ca9-22): average CC50 towards HGF, HPLF, HPC divided by CC50 against Ca9-22
Source text: as §1, §2

[4] = system: pulp cells (HPC); assay: Cytotoxicity (MTT, 48 h) against HPC non-malignant cells; settings: mean ± S.D. of triplicate
Source text: as §1

[5] = system: HSC-3 squamous cell carcinoma cells; assay: Cytotoxicity (MTT, 48 h) against HSC-3 cells; settings: for CC50: 48 h, MTT, mean ± S.D. of triplicate; for SI (HSC-3): average CC50 towards HGF, HPLF, HPC divided by CC50 against HSC-3
Source text: as §1, §2

[6] = system: HSC-4 squamous cell carcinoma cells; assay: Cytotoxicity (MTT, 48 h) against HSC-4 cells; settings: for CC50: 48 h, MTT, mean ± S.D. of triplicate; for SI (HSC-4): average CC50 towards HGF, HPLF, HPC divided by CC50 against HSC-4
Source text: as §1, §2

[7] = system: HSC-2 squamous cell carcinoma cells; assay: Cytotoxicity (MTT, 48 h) against HSC-2 cells; settings: for SI (HSC-2): average CC50 towards HGF, HPLF, HPC divided by CC50 against HSC-2
Source text: as §1, §2

[8] = system: HGF, HPLF, and HPC cells; assay: Average cytotoxicity over the three non-malignant cells
Source text: as §1

[9] = system: periodontal ligament fibroblast (HPLF); assay: Cytotoxicity (MTT, 48 h) against HPLF non-malignant cells; settings: mean ± S.D. of triplicate
Source text: as §1

[10] = system: Ca9-22 cells; assay: Cell cycle assay in Ca9-22 cells; settings: 20 h
Protocol: The evaluation of varying quantities of 1d,e,k on the cell cycle in Ca9-22 cells was undertaken by a literature method. In brief, Ca9-22 cells were treated for 20 h without (control) or with the indicated concentrations of the test samples. To neglect the cytotoxicity effect of DMSO, all samples contained 0.1% DMSO. Cells (approximately 10^6 cells) were harvested, fixed for 1 h on ice with 1% paraformaldehyde, washed twice by phosphate-buffered saline, treated for 30 min at 37 °C with 0.2 mg/mL RNase A (ribonuclease A), stained for 15 min at room temperature with 0.01% propidium iodide in the presence of 0.01% NP-40 (nonyl phenoxypolyethoxyethanol) to prevent cell aggregation, filtered through Falcon® cell strainers (pore size: 40 µm) (Corning, NY, USA), subjected to cell sorting (SH800 Series; SONY Imaging Products and Solutions Inc., Kanagawa, Japan), and then analyzed with Cell Sorter Software version 2.1.2. (SONY Imaging Products and Solutions Inc., Kanagawa, Japan).

[11] = average over Ca9-22, HSC-2, HSC-3, HSC-4
[12] = 48 h, MTT, mean ± S.D. of triplicate

SMILES | Average SI [1] | CC50 [1, 11] [µM] | CC50 [2] [µM] | CC50 [3] [µM] | SI (Ca9-22) [3] | CC50 [4] [µM] | CC50 [5] [µM] | SI (HSC-3) [5] | CC50 [6] [µM] | SI (HSC-4) [6] | CC50 [7, 12] [µM] | SI (HSC-2) [7] | CC50 [8] [µM] | CC50 [9] [µM] | subG1 population ([10]; 0.8 µM) | G2M cell population ([10]; 0.8 µM, p < 0.05) | effect on the cell cycle ([10]; 0.1, 0.2, and 0.4 µM) | HSC-2 CC50 [7, 12] | CC50 Average (non-malignant cells) [8] | Average CC50 [1, 11]
O=C1C(=Cc2ccccc2)CN(C(=O)C(Cl)Cl)CC1=Cc1ccccc1 [Compound 1a] | 6.42 | 0.74 | 5.9 ± 0.1 | 0.42 ± 0.04 | 9.64 | 2.88 ± 0.08 | 1.29 ± 0.07 | 3.14 | 0.59 ± 0.12 | 6.86 | 0.67 ± 0.06 | 6.05 | 4.05 | 3.37 ± 0.42 |  |  |  |  |  | 
O=C1C(=Cc2ccc(F)cc2)CN(C(=O)C(Cl)Cl)CC1=Cc1ccc(F)cc1 [Compound 1b] | 10.0 | 0.28 | 2.97 ± 0.46 | 0.11 ± 0.01 | 19.8 | 1.3 ± 0.16 | 0.44 ± 0.02 | 4.96 | 0.33 ± 0.07 | 6.61 | 0.25 ± 0.02 | 8.72 | 2.18 | 2.26 ± 0.11 |  |  |  |  |  | 
O=C1C(=Cc2ccc(F)c(F)c2)CN(C(=O)C(Cl)Cl)CC1=Cc1ccc(F)c(F)c1 [Compound 1c] | 10.8 | 0.21 | 2.21 ± 0.11 | 0.09 ± 0.02 | 20.0 | 1.28 ± 0.37 | 0.35 ± 0.02 | 5.14 | 0.2 ± 0.01 | 9.00 | 0.2 ± 0.02 | 9.00 | 1.8 | 1.91 ± 0.08 |  |  |  |  |  | 
O=C1C(=Cc2ccc(Cl)c(Cl)c2)CN(C(=O)C(Cl)Cl)CC1=Cc1ccc(Cl)c(Cl)c1 [Compound 1e] | 9.66 | 0.12 | 1.04 ± 0.13 | 0.04 | 19.5 | 0.49 | 0.13 ± 0.06 | 6.00 | 0.23 ± 0.01 | 3.39 | 0.08 ± 0.01 | 9.75 | 0.78 | 0.82 ± 0.1 | slight increase | most prominent increase | little effects | double-digit nanomolar |  | 
COc1ccc(/C=C2\CN(C(=O)C(Cl)Cl)C/C(=C\c3ccc(OC)cc3)C2=O)cc1 [Compound 1f] | 9.41 | 0.79 | 9.03 ± 0.76 | 0.39 ± 0.02 | 15.4 | 3.62 ± 0.07 | 1 ± 0.16 | 5.99 | 1.26 ± 0.27 | 4.75 | 0.52 ± 0.07 | 11.5 | 5.99 | 5.33 ± 0.32 |  |  |  |  |  | 
COc1cc(/C=C2\CN(C(=O)C(Cl)Cl)C/C(=C\c3cc(OC)c(OC)c(OC)c3)C2=O)cc(OC)c1OC [Compound 1h] | 22.0 | 0.8 | 4.7 ± 1.6 | 0.72 ± 0.15 | 11.9 | 4 ± 0.6 | 1.37 ± 0.22 | 6.26 | 0.99 ± 0.39 | 8.67 | 0.14 ± 0.01 |  | 8.58 | 17 ± 5.1 |  |  |  |  |  | 
O=C1/C(=C/c2ccc3c(c2)OCO3)CN(C(=O)C(Cl)Cl)C/C1=C\c1ccc2c(c1)OCO2 [Compound 1i] | 12.3 | 0.48 | 5.67 ± 0.31 | 0.17 ± 0.06 | 25.1 | 2.78 ± 0.14 | 0.74 ± 0.13 | 5.77 | 0.65 ± 0.17 | 6.57 | 0.36 ± 0.01 | 11.9 | 4.27 | 4.37 ± 0.85 |  |  |  |  |  | 
Cc1ccc(C=C2CN(C(=O)C(Cl)Cl)CC(=Cc3ccc(C)cc3)C2=O)cc1 [Compound 1j] | 18.0 | 0.33 | 5.53 ± 0.31 | 0.15 ± 0.03 | 32.1 | 3.93 ± 0.65 | 0.46 ± 0.04 | 10.5 | 0.45 ± 0.04 | 10.7 | 0.26 ± 0.01 | 18.5 | 4.82 | 5 ± 0.1 |  |  |  |  |  | 
CN(C)c1ccc(C=C2CN(C(=O)C(Cl)Cl)CC(=Cc3ccc(N(C)C)cc3)C2=O)cc1 [Compound 1l] | 7.48 | 23.4 | 111 ± 27 | 13.6 ± 2.7 | 10.3 | 122 ± 69 | 45.5 ± 7.6 | 3.08 | 19.6 ± 6.3 | 7.14 | 14.9 ± 4.4 | 9.40 | 140 | 188 ± 21 |  |  |  |  | very low toxicity | 
O=C([O-])C(Cl)Cl.[Na+] [SDA, sodium dichloroacetate, reference compound] |  | > 200 | > 200 | > 200 |  | > 200 | > 200 |  | > 200 |  | > 200 |  | > 200 | > 200 |  |  |  |  |  | little or no efficacy
